Test results from US6989371B1, “Bombesin analogs for treatment of cancer” (Dabur Research Foundation, priority 1996, dated 2006).
Non-standard residues stand in square brackets, D forms with d. Residues, ends and D or L forms follow the SMILES beside them. *: point of attachment. Ac5c = NC1(C(=O)O)CCCC1; Aib = CC(C)(N)C(=O)O; Butyryl = CCCC(=O)*

What was measured:
Assay in all cases: MTT cytotoxicity assay, 48 hours (Example 14)
PTC (colon) = type: cell-based, human
Method: (§1) The cytotoxic effect of peptide sequences SEQ ID NO: 9, SEQ ID NO: 10, SEQ ID NO: 11 and SEQ ID NO: 12, were studied by MTT assay which is based on the principle of uptake of MTT[3-[4,5-dimethylthiazol-2-yl]-2,5-diphenyl tetrazolium bromide], a tetrazolium salt by the metabolically active cells where it is metabolized by active mitochondria into a blue colored formazan product which can be read spectrophotometrically. Tumor cells KB (oral squamous). HuTu80 (Stomach), PTC and SW620 (colon), U87MG (Glioblastoma), HBL 100. (Breast), HeP2 (laryngeal) and L132 (Lung) were incubated with the peptide analogs for 48 hours at 37° C. in a 96-well culture plate, followed by the addition of 100 μl MTT and further incubation of 1 hour. The formazon crystals formed inside the cells were dissolved with a detergent comprising 10% Sodium dodecyl sulfate and 0.01 N HCl and optical density read on a multiscan ELISA reader. The optical density was directly proportional to the number of proliferating and metabolically active cells.

HBL 100 (Breast) = type: cell-based, human
Method: as §1

KB (oral squamous) = type: cell-based, human
Method: as §1

HuTu80 (Stomach) = type: cell-based, human
Method: as §1

SW620 (colon) = type: cell-based, human
Method: as §1

U87MG (Glioblastoma) = type: cell-based
Method: as §1

L132 (Lung) = type: cell-based
Method: as §1

HeP2 (laryngeal) = type: cell-based
Method: as §1

CC(C)C[C@H](NC(=O)[C@H](Cc1c[nH]cn1)NC(=O)C1(NC(=O)[C@@H](NC(=O)[C@H](C)NC(=O)[C@H](Cc2c[nH]c3ccccc23)NC(=O)[C@H](CCC(N)=O)NC(=O)[C@H](N)Cc2ccccc2)C(C)C)CCCC1)C(N)=O [SEQ ID: 10, D-Phe-Gln-Trp-Ala-Val-Ac5c-His-Leu-NH2] (H-[dF]QWAV[Ac5c]HL-NH2; N-terminus assumed)
Percentage cytotoxicity (PTC (colon); 10 pM): 22.2 ± 4.9% | Percentage cytotoxicity (PTC (colon); 100 pM): 21.6 ± 3.1% | Percentage cytotoxicity (PTC (colon); 1 nM): 29.4 ± 2.9% | Percentage cytotoxicity (PTC (colon); 10 nM): 32.5 ± 5.1% | Percentage cytotoxicity (PTC (colon); 100 nM): 29.3 ± 3.2% | Percentage cytotoxicity (PTC (colon); 1 μM): 28.4 ± 3.6% | Percentage cytotoxicity (HBL 100 (Breast); HBL100, 10 pM): 21.1 ± 0.7% | Percentage cytotoxicity (HBL 100 (Breast); HBL100, 100 pM): 16.6 ± 0.1% | Percentage cytotoxicity (HBL 100 (Breast); HBL100, 1 nM): 23.3 ± 1.6% | Percentage cytotoxicity (HBL 100 (Breast); HBL100, 10 nM): 32.9 ± 0.7% | Percentage cytotoxicity (HBL 100 (Breast); HBL100, 100 nM): 21.2 ± 1.7% | Percentage cytotoxicity (HBL 100 (Breast); HBL100, 1 μM): 18.5 ± 1.7% | Percentage cytotoxicity (KB (oral squamous); 10 pM): 19.2 ± 2.9% | Percentage cytotoxicity (KB (oral squamous); 100 pM): 25.0 ± 6.3% | Percentage cytotoxicity (KB (oral squamous); 1 nM): 31.1 ± 4.1% | Percentage cytotoxicity (KB (oral squamous); 10 nM): 27.3 ± 2.7% | Percentage cytotoxicity (KB (oral squamous); 100 nM): 22.0 ± 1.1% | Percentage cytotoxicity (KB (oral squamous); 1 μM): 16.5 ± 0.2% | Percentage cytotoxicity (HuTu80 (Stomach); HuTu80, 10 pM): 13.5 ± 0.8% | Percentage cytotoxicity (HuTu80 (Stomach); HuTu80, 100 pM): 22.9 ± 0.2% | Percentage cytotoxicity (HuTu80 (Stomach); HuTu80, 1 nM): 23.3 ± 2.8% | Percentage cytotoxicity (HuTu80 (Stomach); HuTu80, 10 nM): 20.6 ± 1.7% | Percentage cytotoxicity (HuTu80 (Stomach); HuTu80, 100 nM): 21.0 ± 2.0% | Percentage cytotoxicity (HuTu80 (Stomach); HuTu80, 1 μM): 17.2 ± 1.1% | Percentage cytotoxicity (SW620 (colon); SW620, 10 pM): 16.7 ± 0.2% | Percentage cytotoxicity (SW620 (colon); SW620, 100 pM): 20.9 ± 0.6% | Percentage cytotoxicity (SW620 (colon); SW620, 1 nM): 22.4 ± 1.7% | Percentage cytotoxicity (SW620 (colon); SW620, 10 nM): 25.5 ± 2.8% | Percentage cytotoxicity (SW620 (colon); SW620, 100 nM): 19.4 ± 1.8% | Percentage cytotoxicity (SW620 (colon); SW620, 1 μM): 22.2 ± 2.1% | Percentage cytotoxicity (U87MG (Glioblastoma); 10 pM): 11.6 ± 1.7% | Percentage cytotoxicity (U87MG (Glioblastoma); 100 pM): 16.5 ± 0.5% | Percentage cytotoxicity (U87MG (Glioblastoma); 1 nM): 25.6 ± 2.1% | Percentage cytotoxicity (U87MG (Glioblastoma); 10 nM): 20.0 ± 0.0% | Percentage cytotoxicity (U87MG (Glioblastoma); 100 nM): 15.0 ± 0.5% | Percentage cytotoxicity (U87MG (Glioblastoma); 1 μM): 10.0 ± 0.0% | Percentage cytotoxicity (L132 (Lung); L132, 10 pM): 1.9 ± 0.2% | Percentage cytotoxicity (L132 (Lung); L132, 100 pM): 29.4 ± 1.9% | Percentage cytotoxicity (L132 (Lung); L132, 1 nM): 29.5 ± 2.8% | Percentage cytotoxicity (L132 (Lung); L132, 10 nM): 27.5 ± 2.8% | Percentage cytotoxicity (L132 (Lung); L132, 100 nM): 27.8 ± 2.1% | Percentage cytotoxicity (L132 (Lung); L132, 1 μM): 22.4 ± 1.8% | Percentage cytotoxicity (HeP2 (laryngeal); HeP2, 10 pM): 1.7 ± 0.1% | Percentage cytotoxicity (HeP2 (laryngeal); HeP2, 100 pM): 19.1 ± 0.6% | Percentage cytotoxicity (HeP2 (laryngeal); HeP2, 1 nM): 27.2 ± 2.6% | Percentage cytotoxicity (HeP2 (laryngeal); HeP2, 10 nM): 27.5 ± 2.8% | Percentage cytotoxicity (HeP2 (laryngeal); HeP2, 100 nM): 26.3 ± 1.7% | Percentage cytotoxicity (HeP2 (laryngeal); HeP2, 1 μM): 19.9 ± 1.5%

CCCC(=O)N[C@H](Cc1ccccc1)C(=O)N[C@@H](CCC(N)=O)C(=O)N[C@@H](Cc1c[nH]c2ccccc12)C(=O)N[C@@H](C)C(=O)N[C@H](C(=O)NC(C)(C)C(=O)N[C@@H](Cc1c[nH]cn1)C(=O)N[C@@H](CC(C)C)C(N)=O)C(C)C [SEQ ID: 11, Butanoyl-D-Phe-Gln-Trp-Ala-Val-Aib-His-Leu-NH2] (Butyryl-[dF]QWAV[Aib]HL-NH2)
Percentage cytotoxicity (PTC (colon); 10 pM): 19.7 ± 0.6% | Percentage cytotoxicity (PTC (colon); 100 pM): 28.3 ± 0.8% | Percentage cytotoxicity (PTC (colon); 1 nM): 28.5 ± 2.8% | Percentage cytotoxicity (PTC (colon); 10 nM): 25.7 ± 4.1% | Percentage cytotoxicity (PTC (colon); 100 nM): 25.8 ± 2.5% | Percentage cytotoxicity (PTC (colon); 1 μM): 18.6 ± 1.5% | Percentage cytotoxicity (HBL 100 (Breast); HBL100, 10 pM): 18.2 ± 1.1% | Percentage cytotoxicity (HBL 100 (Breast); HBL100, 100 pM): 15.4 ± 4.1% | Percentage cytotoxicity (HBL 100 (Breast); HBL100, 1 nM): 24.3 ± 1.6% | Percentage cytotoxicity (HBL 100 (Breast); HBL100, 10 nM): 29.9 ± 0.3% | Percentage cytotoxicity (HBL 100 (Breast); HBL100, 100 nM): 22.7 ± 0.5% | Percentage cytotoxicity (HBL 100 (Breast); HBL100, 1 μM): 24.5 ± 0.8% | Percentage cytotoxicity (KB (oral squamous); 10 pM): 21.6 ± 3.7% | Percentage cytotoxicity (KB (oral squamous); 100 pM): 26.7 ± 5.1% | Percentage cytotoxicity (KB (oral squamous); 1 nM): 33.1 ± 2.1% | Percentage cytotoxicity (KB (oral squamous); 10 nM): 31.9 ± 3.1% | Percentage cytotoxicity (KB (oral squamous); 100 nM): 31.9 ± 2.1% | Percentage cytotoxicity (KB (oral squamous); 1 μM): 24.2 ± 1.2% | Percentage cytotoxicity (HuTu80 (Stomach); HuTu80, 10 pM): 17.6 ± 1.6% | Percentage cytotoxicity (HuTu80 (Stomach); HuTu80, 100 pM): 22.6 ± 3.9% | Percentage cytotoxicity (HuTu80 (Stomach); HuTu80, 1 nM): 30.5 ± 4.1% | Percentage cytotoxicity (HuTu80 (Stomach); HuTu80, 10 nM): 27.3 ± 2.7% | Percentage cytotoxicity (HuTu80 (Stomach); HuTu80, 100 nM): 20.0 ± 3.1% | Percentage cytotoxicity (HuTu80 (Stomach); HuTu80, 1 μM): 14.2 ± 0.1% | Percentage cytotoxicity (SW620 (colon); SW620, 10 pM): 20.4 ± 0.3% | Percentage cytotoxicity (SW620 (colon); SW620, 100 pM): 25.9 ± 3.8% | Percentage cytotoxicity (SW620 (colon); SW620, 1 nM): 35.1 ± 2.2% | Percentage cytotoxicity (SW620 (colon); SW620, 10 nM): 31.5 ± 2.6% | Percentage cytotoxicity (SW620 (colon); SW620, 100 nM): 21.0 ± 1.5% | Percentage cytotoxicity (SW620 (colon); SW620, 1 μM): 23.7 ± 1.4% | Percentage cytotoxicity (U87MG (Glioblastoma); 10 pM): 21.9 ± 2.1% | Percentage cytotoxicity (U87MG (Glioblastoma); 100 pM): 26.5 ± 2.6% | Percentage cytotoxicity (U87MG (Glioblastoma); 1 nM): 24.2 ± 1.7% | Percentage cytotoxicity (U87MG (Glioblastoma); 10 nM): 20.0 ± 0.0% | Percentage cytotoxicity (U87MG (Glioblastoma); 100 nM): 15.5 ± 0.6% | Percentage cytotoxicity (U87MG (Glioblastoma); 1 μM): 1.0 ± 0.1% | Percentage cytotoxicity (L132 (Lung); L132, 10 pM): 0.5 ± 0.0% | Percentage cytotoxicity (L132 (Lung); L132, 100 pM): 18.3 ± 0.9% | Percentage cytotoxicity (L132 (Lung); L132, 1 nM): 29.4 ± 0.4% | Percentage cytotoxicity (L132 (Lung); L132, 10 nM): 30.4 ± 0.4% | Percentage cytotoxicity (L132 (Lung); L132, 100 nM): 20.4 ± 1.5% | Percentage cytotoxicity (L132 (Lung); L132, 1 μM): 1.4 ± 1.1% | Percentage cytotoxicity (HeP2 (laryngeal); HeP2, 10 pM): 15.1 ± 0.3% | Percentage cytotoxicity (HeP2 (laryngeal); HeP2, 100 pM): 20.1 ± 0.0% | Percentage cytotoxicity (HeP2 (laryngeal); HeP2, 1 nM): 37.1 ± 3.3% | Percentage cytotoxicity (HeP2 (laryngeal); HeP2, 10 nM): 34.6 ± 2.2% | Percentage cytotoxicity (HeP2 (laryngeal); HeP2, 100 nM): 23.9 ± 1.1% | Percentage cytotoxicity (HeP2 (laryngeal); HeP2, 1 μM): 21.9 ± 2.1%
